Experiments:
[1] = tested on: field bindweed; assay: Test E preemergence herbicide test; type: in vivo, Convolvulus arvensis; design: key: 0 = no effect, 100 = complete control
Text: (§1) Seeds of plant species selected from corn (Zea mays), soybean (Glycine max), velvetleaf (Abutilon theophrasti), lambsquarters (Chenopodium album), wild poinsettia (Euphorbia heterophylla), pigweed, palmer (palmer pigweed, Amaranthus palmeri), waterhemp (common waterhemp, Amaranthus rudis), surinam grass (Brachiaria decumbens), crabgrass, large (large crabgrass, Digitaria sanguinalis), crabgrass, Brazil (Brazilian crabgrass, Digitaria horizontalis), panicum, fall (fall panicum, Panicum dichotomiflorum), foxtail, giant (giant foxtail, Setaria faberii), foxtail, green (green foxtail, Setaria viridis), goosegrass (Eleusine indica), johnsongrass (Sorghum halepense), ragweed (common ragweed, Ambrosia elatior), barnyardgrass (Echinochloa crus-galli), sandbur (southern sandbur, Cenchrus echinatus), arrowleaf […] rhombifolia), ryegrass, Italian (Italian ryegrass, Lolium multiflorum), dayflower, VA (Virginia dayflower, Commelina virginica), field bindweed (Convolvulus arvensis), morningglory (Ipomoea coccinea), nightshade (eastern black nightshade, Solanum ptycanthum), kochia (Kochia scoparia), nutsedge, yellow (yellow nutsedge, Cyperus esculentus), cocklebur (common cocklebur, Xanthium strumarium), smartweed (ladysthumb smartweed, Polygonum Persicaria) and beggarticks (hairy beggarticks, Bidens pilosa), were planted into a silt loam soil and treated preemergence with test chemicals formulated in a non-phytotoxic solvent mixture which included a surfactant. Treated plants and controls were maintained in a greenhouse for 21 days, after which time all species were compared to controls and visually evaluated. Plant response ratings, summarized in Table E, are based on a scale of 0 to 100 where 0 is no effect and 100 is complete control. A dash (-) response means no test result.

[2] = tested on: wild poinsettia; assay: Test E preemergence herbicide test; type: in vivo, Euphorbia heterophylla; design: key: 0 = no effect, 100 = complete control
Text: as §1

SMILES | Plant response rating, Field Bindweed ([1]; 31 g ai/ha) | Plant response rating, Field Bindweed ([1]; 62 g ai/ha) | Plant response rating, Field Bindweed ([1]; 125 g ai/ha) | Plant response rating, Field Bindweed ([1]; 250 g ai/ha) | Plant response rating, Poinsettia, Wild ([2]; 31 g ai/ha) | Plant response rating, Poinsettia, Wild ([2]; 62 g ai/ha) | Plant response rating, Poinsettia, Wild ([2]; 125 g ai/ha) | Plant response rating, Poinsettia, Wild ([2]; 250 g ai/ha) | Plant response rating, Field Bindweed ([1]; 16 g ai/ha) | Plant response rating, Poinsettia, Wild ([2]; 16 g ai/ha)
O=C1NCC(c2ccc(C(F)(F)F)cc2)C1C(=O)Nc1ccc(F)c(F)c1F (stereo not shown) [Compound 232] | 0 | 0 | 40 | 40 | 0 | 0 | 35 | 40 |  | 
O=C1NCC(c2ccc(F)cc2)C1C(=O)Nc1ccccc1F (racemic) [Compound 16] | 0 | 0 | 0 | 0 | 0 | 0 | 0 | 0 | 0 | 0
O=C1NCC(c2cccc(Br)c2)C1C(=O)Nc1ccccc1F (stereo not shown) [Compound 66] | 0 | 0 | 0 | 0 | 0 | 0 | 0 | 20 | 0 | 0
